{
  "source": "DBAASP",
  "experiment_in_all_cases": "≥ marks a high value that may be exact or a test limit, other limits are often not marked, values filed in µg/mL are converted to µM",
  "key": {"[1]": {"tested_on": "Bacillus subtilis AB91021"}, "[2]": {"tested_on": "Bacillus thuringiensis AB92037"}, "[3]": {"tested_on": "Escherichia coli AB94012"}, "[4]": {"tested_on": "Escherichia coli ATCC 25922"}, "[5]": {"tested_on": "Micrococcus luteus AB93113"}, "[6]": {"tested_on": "Pseudomonas aeruginosa ATCC 9027"}, "[7]": {"tested_on": "Staphylococcus aureus AB208193"}, "[8]": {"tested_on": "Staphylococcus aureus AB94004"}, "[9]": {"tested_on": "Staphylococcus aureus ATCC 25923"}, "[10]": {"tested_on": "Staphylococcus aureus ATCC 6538"}, "[11]": {"tested_on": "Staphylococcus aureus P1374"}, "[12]": {"tested_on": "Staphylococcus aureus P1381"}, "[13]": {"tested_on": "Staphylococcus aureus P1389"}, "[14]": {"tested_on": "Staphylococcus epidermidis AB208187"}, "[15]": {"tested_on": "Staphylococcus epidermidis AB208188"}, "[16]": {"tested_on": "Aerococcus viridans"}, "[17]": {"tested_on": "Alcaligenes faecalis"}, "[18]": {"tested_on": "Bacillus megaterium"}, "[19]": {"tested_on": "Bacillus subtilis QB935"}, "[20]": {"tested_on": "Bacillus thuringiensis"}, "[21]": {"tested_on": "Burkholderia cepacia"}, "[22]": {"tested_on": "Enterobacter cloacae beta-12"}, "[23]": {"tested_on": "Enterococcus faecalis"}, "[24]": {"tested_on": "Escherichia coli 1106"}, "[25]": {"tested_on": "Escherichia coli D22"}, "[26]": {"tested_on": "Escherichia coli D31"}, "[27]": {"tested_on": "Escherichia coli K-12"}, "[28]": {"tested_on": "Klebsiella pneumoniae"}, "[29]": {"tested_on": "Micrococcus luteus"}, "[30]": {"tested_on": "Pectobacterium carotovorum subsp. carotovorum"}, "[31]": {"tested_on": "Pseudomonas aeruginosa ATCC 82118"}, "[32]": {"tested_on": "Salmonella typhimurium"}, "[33]": {"tested_on": "Serratia marcescens Db11"}, "[34]": {"tested_on": "Staphylococcus aureus USA 300"}, "[35]": {"tested_on": "Staphylococcus aureus"}, "[36]": {"tested_on": "Xanthomonas campestris pv. oryzae"}, "[37]": {"tested_on": "Candida albicans ATCC 3623"}, "[38]": {"tested_on": "Escherichia coli ATCC 2592"}, "[39]": {"tested_on": "Micrococcus luteus ATCC 9341"}, "[40]": {"tested_on": "Candida albicans ATCC 36232"}, "[41]": {"tested_on": "Alternaria brassicicola MUCL 20297"}, "[42]": {"tested_on": "Aspergillus fumigatus"}, "[43]": {"tested_on": "Fusarium culmorum MUCL 30162"}, "[44]": {"tested_on": "Fusarium haematococcum 160.2.2"}, "[45]": {"tested_on": "Fusarium oxysporum MUCL 909"}, "[46]": {"tested_on": "Neurospora crassa CBS 327-54"}, "[47]": {"tested_on": "Trichophyton mentagrophytes"}},
  "note": "Values joined by “and” are separate entries in the source; they are usually repeats but may differ in a detail not shown here. Equal values may be shown once.",
  "data": [
    {"compound": "CC[C@H](C)[C@H](NC(=O)[C@H](CCCCN)NC(=O)[C@@H](NC(=O)[C@H](C)NC(=O)[C@H](CC(C)C)NC(=O)[C@H](CCCCN)NC(=O)[C@H](Cc1ccccc1)NC(=O)[C@H](CC(C)C)NC(=O)[C@H](Cc1cnc[nH]1)NC(=O)CNC(=O)[C@H](Cc1ccccc1)NC(=O)[C@@H](N)Cc1ccccc1)[C@@H](C)O)C(=O)N[C@H](C(=O)N1CCC[C@H]1C(=O)N[C@@H](CO)C(=O)N[C@@H](CC(C)C)C(=O)N[C@@H](Cc1ccccc1)C(=O)N[C@@H](CCC(N)=O)C(=O)O)[C@@H](C)CC", "note": "[FFGHLFKLATKIIPSLFQ]", "values": [
      {"measurement": "MIC", "setting": "[1]", "value": 3, "unit": "µM"},
      {"measurement": "MIC", "setting": "[2]", "value": 3, "unit": "µM"},
      {"measurement": "MIC", "setting": "[3]", "value": 23.7, "unit": "µM"},
      {"measurement": "MIC", "setting": "[4]", "value": 11.9, "unit": "µM"},
      {"measurement": "MIC", "setting": "[5]", "value": "≥ 47.5", "unit": "µM"},
      {"measurement": "MIC", "setting": "[6]", "value": 11.9, "unit": "µM"},
      {"measurement": "MIC", "setting": "[7]", "value": 3, "unit": "µM"},
      {"measurement": "MIC", "setting": "[8]", "value": 1.5, "unit": "µM"},
      {"measurement": "MIC", "setting": "[9]", "value": 3, "unit": "µM"},
      {"measurement": "MIC", "setting": "[10]", "value": 1.5, "unit": "µM"},
      {"measurement": "MIC", "setting": "[11]", "value": 3, "unit": "µM"},
      {"measurement": "MIC", "setting": "[12]", "value": 1.5, "unit": "µM"},
      {"measurement": "MIC", "setting": "[13]", "value": 3, "unit": "µM"},
      {"measurement": "MIC", "setting": "[14]", "value": 3, "unit": "µM"},
      {"measurement": "MIC", "setting": "[15]", "value": 1.5, "unit": "µM"}
    ]},
    {"compound": "CSCC[C@H](NC(=O)[C@H](CC(N)=O)NC(=O)[C@@H]1CCCN1C(=O)[C@@H]1CCCN1C(=O)[C@H](CCCNC(=N)N)NC(=O)[C@@H]1CCCN1C(=O)[C@H](CCCNC(=N)N)NC(=O)[C@@H]1CCCN1C(=O)[C@H](CCCNC(=N)N)NC(=O)[C@H](Cc1ccc(O)cc1)NC(=O)[C@H](CC(=O)O)NC(=O)[C@@H]1CCCN1C(=O)[C@H](CCCCN)NC(=O)[C@H](CC(=O)O)NC(=O)[C@@H](N)C(C)C)C(=O)O", "note": "[VDKPDYRPRPRPPNM]", "values": [
      {"measurement": "MIC", "setting": "[16]", "value": "≥ 200", "unit": "µM"},
      {"measurement": "MIC", "setting": "[17]", "value": "≥ 70.7", "unit": "µM"},
      {"measurement": "MIC", "setting": "[18]", "value": "≥ 200", "unit": "µM"},
      {"measurement": "MIC", "setting": "[19]", "value": "≥ 200", "unit": "µM"},
      {"measurement": "MIC", "setting": "[20]", "value": "≥ 200", "unit": "µM"},
      {"measurement": "MIC", "setting": "[21]", "value": "≥ 100", "unit": "µM"},
      {"measurement": "MIC", "setting": "[22]", "value": "≥ 141", "unit": "µM"},
      {"measurement": "MIC", "setting": "[23]", "value": "≥ 200", "unit": "µM"},
      {"measurement": "MIC", "setting": "[24]", "value": "≥ 141", "unit": "µM"},
      {"measurement": "MIC", "setting": "[25]", "value": "≥ 70.7", "unit": "µM"},
      {"measurement": "MIC", "setting": "[26]", "value": "≥ 141", "unit": "µM"},
      {"measurement": "MIC", "setting": "[27]", "value": "≥ 100", "unit": "µM"},
      {"measurement": "MIC", "setting": "[28]", "value": "> 200", "unit": "µM"},
      {"measurement": "MIC", "setting": "[29]", "value": "≥ 200", "unit": "µM"},
      {"measurement": "MIC", "setting": "[30]", "value": "≥ 200", "unit": "µM"},
      {"measurement": "MIC", "setting": "[31]", "value": "≥ 200", "unit": "µM"},
      {"measurement": "MIC", "setting": "[32]", "value": "≥ 70.7", "unit": "µM"},
      {"measurement": "MIC", "setting": "[33]", "value": "≥ 200", "unit": "µM"},
      {"measurement": "MIC", "setting": "[34]", "value": "≥ 100", "unit": "µM"},
      {"measurement": "MIC", "setting": "[35]", "value": "> 200", "unit": "µM"},
      {"measurement": "MIC", "setting": "[36]", "value": "≥ 141", "unit": "µM"}
    ]},
    {"compound": "CC(C)C[C@H](NC(=O)[C@H](CC(C)C)NC(=O)[C@H](CCCCN)NC(=O)[C@H](CC(C)C)NC(=O)[C@H](CC(C)C)NC(=O)[C@H](CC(C)C)NC(=O)[C@H](CCCCN)NC(=O)[C@H](CC(C)C)NC(=O)[C@H](CC(C)C)NC(=O)[C@H](CC(C)C)NC(=O)[C@@H](N)CCCCN)C(=O)N[C@@H](CCCCN)C(N)=O", "note": "[KLLLKLLLKLLK]", "values": [
      {"measurement": "MIC", "setting": "[37]", "value": 4.39, "unit": "µM"},
      {"measurement": "MIC", "setting": "[38]", "value": 11.6, "unit": "µM"},
      {"measurement": "MIC", "setting": "[39]", "value": 4.39, "unit": "µM"},
      {"measurement": "MIC", "setting": "[6]", "value": 8.7, "unit": "µM"},
      {"measurement": "MIC", "setting": "[10]", "value": 11.6, "unit": "µM"}
    ]},
    {"compound": "CC(C)[C@H](NC(=O)[C@H](CCCCN)NC(=O)[C@H](Cc1ccccc1)NC(=O)[C@@H](NC(=O)[C@@H](NC(=O)[C@H](CCCCN)NC(=O)[C@H](CCCCN)NC(=O)[C@@H](N)CCCCN)C(C)C)C(C)C)C(=O)N[C@@H](CCCCN)C(=O)N[C@@H](Cc1ccccc1)C(=O)N[C@@H](CCCCN)C(N)=O", "note": "[KKKVVFKVKFK]", "values": [
      {"measurement": "MIC", "setting": "[40]", "value": "9.07 µM and 3.21 µM and 4.53 µM"},
      {"measurement": "MIC", "setting": "[39]", "value": 2.27, "unit": "µM"},
      {"measurement": "MIC", "setting": "[10]", "value": 2.27, "unit": "µM"}
    ]},
    {"compound": "CC[C@H](C)[C@H](NC(=O)[C@H](CO)NC(=O)[C@H](CC(C)C)NC(=O)[C@@H](NC(=O)[C@@H](N)CCCN=C(N)N)[C@@H](C)CC)C(=O)N[C@@H](CC(C)C)C(=O)N[C@@H](CCCN=C(N)N)C(=O)N[C@@H](Cc1cnc[nH]1)C(=O)N[C@@H](CCC(N)=O)C(=O)N[C@@H](CC(N)=O)C(=O)N[C@@H](CC(C)C)C(=O)N[C@@H](CC(C)C)C(=O)N[C@@H](CCCCN)C(=O)N[C@@H](CCC(=O)O)C(=O)N[C@@H](CC(C)C)C(=O)N[C@@H](CCC(N)=O)C(=O)N[C@@H](CC(=O)O)C(=O)N[C@@H](CC(C)C)C(=O)N[C@@H](C)C(=O)N[C@@H](CC(C)C)C(=O)N[C@@H](CCC(N)=O)C(=O)NCC(=O)N[C@@H](C)C(=O)N[C@@H](CCCCN)C(=O)O", "note": "[RILSILRHQNLLKELQDLALQGAK]", "values": [
      {"measurement": "MIC", "setting": "[41]", "value": 10, "unit": "µM"},
      {"measurement": "MIC", "setting": "[42]", "value": 30, "unit": "µM"},
      {"measurement": "MIC", "setting": "[43]", "value": 10, "unit": "µM"},
      {"measurement": "MIC", "setting": "[44]", "value": 7, "unit": "µM"},
      {"measurement": "MIC", "setting": "[45]", "value": 30, "unit": "µM"},
      {"measurement": "MIC", "setting": "[46]", "value": 5, "unit": "µM"},
      {"measurement": "MIC", "setting": "[47]", "value": 30, "unit": "µM"}
    ]}
  ]
}
